Results reported in patent publication US9447119B2, “Chemical compound for inhibiting the growth and proliferation of human liver cancer cells HepG2 and method for synthesizing it” (priority 2015, dated 2016).
≈ marks a conversion by molar mass, not a printed value.

Columns and labels:
[1] = system: HepG2 (Hepatocellular carcinoma cells); test: Cytotoxicity evaluation using viability assay (crystal violet) against HepG2 cell line; assay type: cell-based, human; conditions: for Viability %: 48 hours; for IC50: Homo sapiens, HepG2 cells, 48 hours incubation, crystal violet viability, read-out: inhibition concentration value (IC50) against HepG2
Source text: HepG2 cells (human cell line of a well differentiated hepatocellular carcinoma isolated from a liver biopsy of a person) were obtained from the American Type Culture Collection (ATCC). The chemicals used were: Dimethyl sulfoxide (DMSO), crystal violet and trypan blue dye, purchased from Sigma, St. Louis, Mo., USA; DMEM, RPMI-1640, FBS, HEPES buffer solution, L-glutamine, gentamycin and 0.25% Trypsin-EDTA, purchased from BioWhittaker®, Lonza, Belgium; and Crystal violet stain (1%), composed of 0.5% (w/v) crystal violet and 50% methanol, made up to volume with ddH20 and filtered through a Whatmann No. I filter paper.
In the cytotoxicity assay, the cells were propagated in Dulbecco's modified Eagle's medium (DMEM) supplemented with 10% heat-inactivated fetal bovine serum, 1% L-glutamine, HEPES buffer and 50 μg/ml gentamycin. All cells were maintained at 37° C. in a humidified atmosphere with 5% C02 and were subcultured two times a week.
Cell toxicity was monitored by determining the effect of the test samples on cell morphology and cell viability.
For cytotoxicity assay, the cells were seeded in a 96-well plate at a cell concentration of 1×10^4 cells per well in 100 μl of growth medium. Fresh medium containing different concentrations of the test sample was added after 24 hours following seeding. Serial two-fold dilutions of the tested chemical compound were added to confluent cell monolayers dispensed into 96-well, flat-bottomed microtiter plates (Falcon, N.J., USA) using a multichannel pipette. The microtiter plates were incubated at 37° C. in a humidified incubator with 5% C02 for a period of 48 hours. Three wells were used for each concentration of the test sample. Control cells were incubated without test sample and with or without DMSO. The little percentage of DMSO present in the wells (maximal 0.1%) was found not to affect the experiment. After incubation of the cells for 24 hours at 37° C., various concentrations of sample (50, 25, 12.5, 6.25, 3.125 & 1.56 μg) were added, and the incubation was continued for 48 hours and viable cells yield was determined by a colorimetric method.
In brief, after the end of the incubation period, media were aspirated and the crystal violet solution (1%) was added to each well for at least 30 minutes. The stain was removed and the plates were rinsed using tap water until all excess stain was removed. Glacial acetic acid (30%) was then added to all wells and mixed thoroughly and then the absorbance of the plates was measured after being gently shaken on a Microplate reader (TECAN, Inc.), using a test wavelength of 490 nm. All results were corrected for background absorbance detected in wells without added stain. Treated samples were compared with the cell control in the absence of the tested compounds. All experiments were carried out in triplicate.
The cell cytotoxic effect of each tested compound was calculated according to the rapid colorimetric assay for cellular growth and survival: application to proliferation and cytotoxicity assay, published by T. Mosmann in the Journal of Immunology Methods, 1983, 65:55-63; and the antiviral activity of medicinal plants of Nilgriris, published by P. Vijayan et al. in the Indian Journal of Medical Research, 2004, 120: 24-29.

[2] = system: HepG2 (Hepatocellular carcinoma cells); test: as above; assay type: cell-based, human; conditions: 48 hours

Row | Compound | Viability % ([1]; HepG2, sample conc. 1.56 μg) | Viability % ([1]; HepG2, sample conc. 3.125 μg) | Viability % ([1]; HepG2, sample conc. 6.25 μg) | Viability % ([1]; HepG2, sample conc. 12.5 μg) | Viability % ([1]; HepG2, sample conc. 25 μg) | Viability % ([1]; HepG2, sample conc. 50 μg) | IC50 [1] | Viability % ([2]; HepG2, sample conc. 0.78 μg) | melting point | Viability % ([2]; HepG2, sample conc. 0.39 μg)
1 | COc1cccc2c1C(=O)c1c(O)c3c(c(O)c1C2=O)C[C@@](O)(C(=O)CO)C[C@@H]3O[C@H]1C[C@H](N)[C@H](O)[C@H](C)O1 [Doxorubicin, reference compound] | 48.25% | 30.32% | 21.03% | 16.90% | 14.29% | 10.95% | 1.2 µg/mL (≈ 2.21 µM) | 57.44% |  | 
2 | O=c1c2c3c(sc2nc2sc(Nc4ccc([N+](=O)[O-])cc4)nn12)CCCCC3 [compound of the invention, 2-((4-Nitrophenyl)amino)-7,8,9,10-tetrahydrocyclohepta[4,5]thieno[2,3-d][1,3,4]thiadiazolo[3,2-a]pyrimidin-11(6H)-one] | 32.86% | 23.17% | 13.92% | 10.04% | 7.52% | 3.79% | 0.7 µg/mL (≈ 1.69 µM) | 45.74% | > 300 °C | 64.21%
